Patent US20040009126A1, “Inhalation system for prevention and treatment of intracellular infections” (priority 2002, published 2004)

Conditions: mice, intratracheal administration, lungs
Text: FIG. 2 is a graphical representation of the biodistribution of ciprofloxacin in the lungs upon administration of ciprofloxacin in liposomal form by inhalation and in free form by inhalation and orally.
The distribution following IT administration was compared with the distribution obtained in the lungs following an oral delivery of ciprofloxicin.

Q: For O=C(O)c1cn(C2CC2)c2cc(N3CCNCC3)c(F)cc2c1=O [free ciprofloxicin, ciprofloxicin], which “lung level of ciprofloxicin over time” value is on record?
A: Its value is “negligible after one hour”.
